This note sets out measurements from patent US20190185544A1, “COMPOSITIONS AND METHODS OF MODULATING ABETA PROTEIN” (University of South Florida, priority 2016, published 2019).

“Also recorded” adds a separate entry of the source. Residues, ends and D or L forms follow the SMILES beside them.

Data set [1] relates to CHO/APPwt cells. As to the kind of experiment: Total cell associated cholesterol in CHO/APPwt cells. It is filed as cell-based, Chinese hamster. Particulars: 6KApoEp 0, 5 and 10 μM overnight. As to the method:
(§1) Total cell associated cholesterol levels are represented as mean±s.d. (μg/mg of total intracellular protein) from three independent experiments. In addition, total plasma cholesterol levels in 3×Tg-AD mice treated with ApoEp (n=6) and 5×FAD mice treated with 6KApoEp (n=10) or PBS (Ctrl, n=10), as described in FIGS. 25A-26G, and in associated wild-type mice (WT) were analyzed by flourometric cholesterol quantitation kit (FIG. 31B). LDLR (FIG. 31C, top panel) and ApoE (middle panel) expression levels in brain homogenates were also analyzed by WB. […] (*P<0.05) and P>0.0.5, non-significant compared to control treatment.
CHO/APPwt cells were cultured overnight in 6-well plates at 2×10^6 cells/well in serum free DMEM, followed by washing 3 times with ice-cold PBS, lysis by sonication in chloroform:isopropanol:IGEPAL CA-630 (7:11:0.1) and centrifugation. The organic phase was transferred to a new tube, air dried at 50° C. to remove chloroform and diluted 10-fold in cholesterol assay buffer for cholesterol determination by flourometric cholesterol quantitation kit according to manufacturer's instructions (MilliporeSigma).

Data set [2] in a line: Plasma cholesterol and brain LDLR and ApoE expression in treated 3×Tg-AD and 5×FAD mice. It is filed as in vivo, mouse. The following applies: 5×FAD mice treated with 6KApoEp. As to the method: as §1
Data set [3] deals with CHO/APPwt cells. Kind of data set: Aβ production in CHO/APPwt cells, treatment alone (Aβ1-40, 42 ELISA, 82E1 WB). The following applies: for Aβ production (Aβ1-40, 42): serum-free medium, 2 h (ELISA) or 16 h (WB). It is filed as cell-based, Chinese hamster. As to the method: Chinese hamster ovary (CHO) cells overexpressing human wild-type amyloid precursor protein (APPwt) (CHO/APPwt cells) were cultured in 96-well plate at about 2×10^4/well in Dulbecco's modified Eagle's medium (DMEM) with 10% fetal bovine serum (FBS), 1 mM sodium pyruvate and 100 U/mL of penicillin/streptomycin for 18 hours.
CHO/APPwt cells were cultured in 96-well plate (about 2×10^4/well) in serum-free medium and treated with ApoE LDLR, FlagApoE LDLR (SEQ ID NO.: 1 with an N-terminal FLAG tag), BiotinApo LDLR (SEQ ID NO.: 1 with an N-terminal Biotin) and 3 lysinesApoE LDLR (3KApoE LDLR (SEQ ID NO.: 2)) at indicated doses for about 2 hours.
The conditioned media and cell lysates were prepared, and subjected to Aβ ELISA and protein assay.
CHO cells overexpressing human wild-type APP (CHO/APPwt) cells were cultured in 96-well plate at 2×10^4/well in Dulbecco's modified Eagle's medium (DMEM) with 10% fetal bovine serum (FBS), 1 mM sodium pyruvate and 100 U/mL of penicillin/streptomycin for 18 hours. […] 82E1 WB analyses as shown below the Aβ ELISA result histograms. The Aβ ELISA results are representative of three independent experiments with each condition triplicated and presented as mean±SD.
(residues 133-152, SEQ ID NO: 1)] as indicated for 2 and 16 hours (h). The conditioned media and cell lysates were analyzed by Aβ1-40, 42 ELISA (FIG. 10A), 82E1 WB analysis (FIG. 10B) and protein assay, respectively. In addition, (FIG. 10C) CHO/APPwt cells were cultured in 96-well plate (2×10^4/well) in serum-free DMEM and treated with FlagApoE-LBDP, BiotinApoE-LBDP and 3 lysineApoE-LBDP (3KApoE-LBDP) in comparing to ApoE-LBDP at indicated doses for 2 hours (h). […] (SEQ ID NO: 2); […]-[…] (SEQ ID NO: 10); Biotin-[…] (SEQ ID NO: 1 with an N-Terminal Biotin).
CHO cells engineered to express human wild-type APP (CHO/APPwt) or Swedish mutant APP (CHO/APPswe) were obtained. These cells were cultured in 96 or 24 well plates at 4×10^4 or 2×10^5 cells/well, respectively, in Dulbecco's modified Eagle's medium (DMEM) with 10% fetal bovine serum, 1 mM sodium pyruvate and 100 U/mL of penicillin/streptomycin (Invitrogen, Thermo Fisher Scientific). In addition, murine N2a cells transfected with APPwt (N2a/APPwt were obtained), SH-SY5Y cells transfected with APPswe and wild-type SH-SY5Y cells (ATCC, Manassas, Va.) were cultured as previously described^42. Primary hN2TM human neurons (Neuromics, Edina, Minn.) were cultured in hN2TM human neuron culture media and primary HCN2 human neurons (ATCC) were cultured in DMEM with 4 mM L-glutamine adjusted to contain 1.5 g/L sodium bicarbonate, 4.5 g/L glucose, fetal bovine serum (10%).
(§2) Aβ1-40, 42 and sAPPα from cell and brain homogenates were detected by Aβ1-40, 42 and sAPPα ELISA kits (IBL-America), strictly following the manufacturer's instructions^43,44.
(§3) WB analyses were performed as previously described^43,44. Briefly, 10% bicine/tris gel containing 8 M urea was used for separation of Aβ1-40, 42 species from brain homogenates or CHO cell conditioned media or lysates, followed by transfer to 0.2 μm pore-size nitrocellulose membrane (Bio-Rad, Hercules, Calif.). The membrane was boiled in PBS for 3 to 5 min before blocking to enhance sensitivity and then incubated with 82E1. For all other proteins detected by WB, 10% tris-SDS gels were used. Densitometry analysis was performed as previously described using a FluorS Multiimager with Quantity One™ software 43.

Data set [4] relates to CHO/APPwt cells. Kind of data set: Inhibition of apoE-/lipoprotein-induced Aβ production in CHO/APPwt cells (Aβ ELISA). The format is cell-based, Chinese hamster. The protocol: CHO/APPwt cells were treated with apoE LDLR binding domain peptide (aa 133-152, ApoEp), FlagApoEp, BiotinApoEp, 3K (lysine) ApoEp, 3D (aspartate) ApoEp or scrambled peptide at 0 to 25 μM, followed after 2 h by analysis of Aβ levels in conditioned media by ELISA (Aβ ELISA, FIGS. 19A and 19C) and after 16 h by analysis of Aβ in cell lysates by Western blot using 82E1 antibody (Aβ WB, FIG. 19B). […] Pre-incubating with HDL has been previously reported to lipidate apoE. Hu astro med was obtained from human astrocytes (CCF-STTG1/ATCC® CRL-1718™) as described previously. […]
CHO cells were also transfected with pCMV6 APP695 or pCMV6 E1 depleted APP695, yielding cells expressing wild type APP695 (CHO/APPwt) or truncated APP695 lacking the N-terminal E1 region (CHO/APPdE1). […] Diagram indicates important domains identified in APP, including N-terminal E1 region (top panel), and APPwt and APPdE1 proteins in cell lysates and conditioned media derived from the transfected CHO cells as determined by WB using 6E10 (middle panels). […] Asterisk indicates P<0.05 compared with the corresponding absence of 22C11, 6H3B5 or 6KApoEp, or with corresponding CHO/APPwt cells, as determined by one-way ANOVA. […]
as §2
For orientation: ELISA stands for enzyme-linked immunosorbent assay.

For data set [5], the target named is T1, human recombinant sAPPβ (rsAPPβ, without Aβ domain) (human, UniProt P05067 18-671, limits assumed).
T1 construct: domain: sAPPβ (without Aβ domain); Bought protein
As to the kind of experiment: in vitro incubation 1 h at 37 °C, IP with 6H3B5, WB.

Data set [6] concerns the target T2, human recombinant sAPPα (rsAPPα) (human, UniProt P05067 18-687, limits assumed).
T2 construct: domain: sAPPα; also called human sAPPα protein
The description is as above.

Data set [7] concerns the target T3, CHO/APPwt cell conditioned medium-derived sAPPα (cmsAPPα) (human, UniProt P05067 18-687, limits assumed).
T3 construct: domain: sAPPα
Described as above.

The target of data set [8] is T4, human wild-type amyloid precursor protein (APPwt) expressed in CHO/APPwt cells (human, UniProt P05067 18-770).
T4 construct: whole, on cells; Full-length APP in cell lysates or on fixed CHO/APPwt cells; also called full-length APP; f-APP
Kind of data set: CHO/APPwt cells treated 2 h; IP of cell lysates with 6H3B5 or pN-APP and WB; immunofluorescence. As to the method:
as §3, with “described^{43,44}.” for “described^43,44.”, “43. Immunoprecipitation (IP) was performed by first incubating conditioned media or cell lysates with appropriate antibodies and Protein-A/G Mag Sepharose beads (GE Healthcare Life Sciences, Pittsburgh, Pa.) overnight with gentle rocking at 4° C., followed by three washes with binding buffer (50 mM tris, 150 mM NaCl, pH 7.5) and analysis by WB.” for “43.”

Data set [9] addresses T5, total secreted APP (t-sAPP) in CHO/APPwt conditioned media (human, UniProt P05067 18-687, limits assumed).
T5 construct: domain: total secreted APP (t-sAPP); Mixture of secreted APP ectodomain forms
As to the kind of experiment: CHO/APPwt cells treated 2 h; IP of conditioned media with 6H3B5 or pN-APP and WB. As to the method:
as §3, with “described^{43,44}.” for “described^43,44.”, “43. Immunoprecipitation (IP) was performed by first incubating conditioned media or cell lysates with appropriate antibodies and Protein-A/G Mag Sepharose beads (GE Healthcare Life Sciences, Pittsburgh, Pa.) overnight with gentle rocking at 4° C., followed by three washes with binding buffer (50 mM tris, 150 mM NaCl, pH 7.5) and analysis by WB.” for “43.”

The target of data set [10] is T4, human wild-type amyloid precursor …. Kind of data set: cell-based or functional assay.

T4 sequence (P05067 18-770): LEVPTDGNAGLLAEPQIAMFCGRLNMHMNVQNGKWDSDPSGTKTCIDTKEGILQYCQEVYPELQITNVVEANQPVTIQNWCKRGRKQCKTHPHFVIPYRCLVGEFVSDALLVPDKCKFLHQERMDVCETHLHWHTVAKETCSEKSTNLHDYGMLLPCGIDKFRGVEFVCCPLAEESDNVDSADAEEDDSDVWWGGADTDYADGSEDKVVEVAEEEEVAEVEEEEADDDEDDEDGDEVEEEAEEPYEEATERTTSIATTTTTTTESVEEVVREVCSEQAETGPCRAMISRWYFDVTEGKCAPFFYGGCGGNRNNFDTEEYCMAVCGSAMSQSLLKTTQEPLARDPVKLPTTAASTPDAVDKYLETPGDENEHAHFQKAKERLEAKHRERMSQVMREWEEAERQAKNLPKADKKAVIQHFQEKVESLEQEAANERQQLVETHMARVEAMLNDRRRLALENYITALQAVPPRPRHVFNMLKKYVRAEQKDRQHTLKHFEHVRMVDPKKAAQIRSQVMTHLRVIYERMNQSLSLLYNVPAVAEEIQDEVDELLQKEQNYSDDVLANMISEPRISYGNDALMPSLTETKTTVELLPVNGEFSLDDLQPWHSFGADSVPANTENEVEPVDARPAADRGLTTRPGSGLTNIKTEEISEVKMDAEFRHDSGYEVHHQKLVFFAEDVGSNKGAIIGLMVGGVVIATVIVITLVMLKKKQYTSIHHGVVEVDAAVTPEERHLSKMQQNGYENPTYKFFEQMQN
T1 sequence (P05067 18-671 limits assumed): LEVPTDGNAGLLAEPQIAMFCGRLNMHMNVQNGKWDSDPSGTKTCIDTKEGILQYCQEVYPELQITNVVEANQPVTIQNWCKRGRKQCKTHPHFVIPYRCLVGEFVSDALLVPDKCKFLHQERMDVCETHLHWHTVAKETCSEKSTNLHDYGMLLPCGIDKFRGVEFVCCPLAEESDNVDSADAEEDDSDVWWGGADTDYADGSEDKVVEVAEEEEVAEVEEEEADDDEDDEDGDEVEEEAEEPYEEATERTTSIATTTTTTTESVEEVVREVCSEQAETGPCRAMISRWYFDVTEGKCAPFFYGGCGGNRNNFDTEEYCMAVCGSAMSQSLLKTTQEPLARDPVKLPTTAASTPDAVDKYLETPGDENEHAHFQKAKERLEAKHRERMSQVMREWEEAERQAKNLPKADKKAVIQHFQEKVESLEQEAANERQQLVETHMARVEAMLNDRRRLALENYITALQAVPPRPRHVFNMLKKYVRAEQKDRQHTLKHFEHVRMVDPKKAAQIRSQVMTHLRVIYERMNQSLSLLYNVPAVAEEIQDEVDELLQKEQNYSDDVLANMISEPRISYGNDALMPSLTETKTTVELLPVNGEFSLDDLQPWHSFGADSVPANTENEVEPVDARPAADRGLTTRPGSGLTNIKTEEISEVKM
T5 sequence (P05067 18-687 limits assumed): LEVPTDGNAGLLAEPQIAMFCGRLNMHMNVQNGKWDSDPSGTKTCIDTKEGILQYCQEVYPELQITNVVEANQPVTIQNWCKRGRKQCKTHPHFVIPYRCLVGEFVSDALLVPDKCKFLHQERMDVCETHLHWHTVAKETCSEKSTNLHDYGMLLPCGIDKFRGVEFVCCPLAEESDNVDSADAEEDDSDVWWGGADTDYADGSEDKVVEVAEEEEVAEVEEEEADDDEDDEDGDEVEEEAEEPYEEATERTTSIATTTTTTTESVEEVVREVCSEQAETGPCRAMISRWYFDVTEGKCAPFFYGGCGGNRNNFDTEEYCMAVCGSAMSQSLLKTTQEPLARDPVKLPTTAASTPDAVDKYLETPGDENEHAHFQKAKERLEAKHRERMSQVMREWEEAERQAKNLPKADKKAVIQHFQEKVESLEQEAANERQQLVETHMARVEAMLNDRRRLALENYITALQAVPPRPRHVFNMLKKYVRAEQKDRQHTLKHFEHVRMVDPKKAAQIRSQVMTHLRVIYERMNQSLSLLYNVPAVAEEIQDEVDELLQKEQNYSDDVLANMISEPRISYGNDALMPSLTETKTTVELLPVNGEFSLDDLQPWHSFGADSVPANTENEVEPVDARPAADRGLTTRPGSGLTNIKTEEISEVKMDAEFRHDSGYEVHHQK
T3 sequence (P05067 18-687 limits assumed): as above
T2 sequence (P05067 18-687 limits assumed): as above

In the case of `CC(C)C[C@H](NC(=O)[C@H](CCCNC(=N)N)NC(=O)[C@@H](NC(=O)[C@H](CCCNC(=N)N)NC(=O)[C@H](CC(C)C)NC(=O)[C@H](CCCCN)NC(=O)[C@H](CCCCN)NC(=O)[C@H](CCCCN)NC(=O)[C@H](CCCCN)NC(=O)[C@H](CCCCN)NC(=O)[C@@H](N)CCCCN)C(C)C)C(=O)N[C@@H](C)C(=O)N[C@@H](CO)C(=O)N[C@@H](Cc1c[nH]cn1)C(=O)N[C@@H](CC(C)C)C(=O)N[C@@H](CCCNC(=N)N)C(=O)N[C@@H](CCCCN)C(=O)N[C@@H](CC(C)C)C(=O)N[C@@H](CCCNC(=N)N)C(=O)N[C@@H](CCCCN)C(=O)N[C@@H](CCCNC(=N)N)C(=O)N[C@@H](CC(C)C)C(=O)N[C@@H](CC(C)C)C(=O)N[C@@H](CCCNC(=N)N)C(=O)N[C@@H](CC(=O)O)C(=O)N[C@@H](C)C(=O)O` [6KApoEp] (H-KKKKKKLRVRLASHLRKLRKRLLRDA-OH; N-terminus and C-terminus assumed), in the data set on CHO/APPwt cells [1], the cell-associated cholesterol levels entry was “without altering cell-associated or plasma cholesterol levels”. The plasma cholesterol levels entry in [2] is on record as “without altering cell-associated or plasma cholesterol levels”.
For the molecule “ApoB100: apolipoprotein B, human plasma (Athens Research & Technology)”, in the data set with CHO/APPwt cells [3], the sAPPα secretion entry is reported as “decreased sAPPα secretion” and the “Aβ production (Aβ1-40, 42)” value is given as “increased Aβ1-40, 42 production; also recorded: markedly promote amyloid β protein (Aβ) production”.
As for “DYKDDDDK-LRVRLASHLRKLRKRLLRDA (DYKDDDDKLRVRLASHLRKLRKRLLRDA; N-terminal FLAG ApoE recombinant polypeptide) [FlagApoEp, ApoEp modified by N-terminal addition of Flag-Tag]”, the “Aβ production (Aβ1-40, 42)” value with CHO/APPwt cells [3] is “greatly enhanced the efficacy of ApoEp to increase Aβ1-40, 42 levels”.
As to “KKKLRVRLASHLRKLRKRLLRDA (polypeptide configured to modulate binding of a protein the an ApoE receptor) [3KApoEp, ApoEp with 3 N-terminal lysines]”, the “Aβ production (Aβ1-40, 42)” value in the data set on CHO/APPwt cells [3] is “terminated this amyloidogenic effect”. Also, the “basal and apoE4-induced Aβ production” value in the data set with CHO/APPwt cells [4] (peptide 10 μM for 15 min, then with or without hu rec ApoE4 10 μg/mL for 2 hours) is listed as “moderately”. Moreover, the “Aβ generation induced by human plasma ApoE3, human recombinant ApoE3 and ApoE4, human plasma LDL and ApoB100” value in the data set with CHO/APPwt cells [4] (pre-treatment at about 10 μM, then inducer for about 2 hours) is on record as “Markedly Inhibits Aβ Generation”.

B1: 6K (6 lysine peptide) (peptide)
peptide: KKKKKK
notes: Control peptide of six lysines; also called 6K lysine
As for B1, the binding result is on record as “no binding (tested: 100 nM)” in data set [5]; “no binding (tested: 100 nM)” in [6]; “no binding (tested: 100 nM)” in data set [7]; “no binding (tested: 10 µM)” in data set [8]; “no binding (tested: 10 µM)” in data set [9].

B2: 6KApoEp (ApoE LDLR binding domain peptide with 6 N-terminal lysines) (peptide)
peptide: KKKKKKLRVRLASHLRKLRKRLLRDA
As to B2, in data set [10], the “apoE4-induced Aβ production in CHO/APPwt cells (Aβ ELISA and WB), IC50” value was 320 to 630 nM.
